Source: publication PMC8224398, “SARS-CoV-2 mutations in MHC-I-restricted epitopes evade CD8^+ T cell responses” (Science Immunology, 2021)

Tests used:
HLA-A*02:01 = HLA-A*02:01 (Homo sapiens, UniProt P04439, D140Y/D185E/D98H/E176V/E277Q/G131W/G231S/I119V/I121R/I166T/I218V/L300P/L318F/N151K/N90K/P208A/P217A/Q86G/Q94H/R138H/R169H/T345S); type: binding
HLA-B*40:01 = HLA-B*40:01 (Homo sapiens, UniProt P01889, A65T/A93T/A95T/D138N/D98Y/E176V/E69K/N87E/Q56L/Q94N/R180L/S121R/S35A/S48T/T167S/V36M/W171L/Y33H/Y91S); type: binding
[1] = tested on: autologous EBV+ B cells pulsed with peptide; type: cell-based, human; settings: 5 h at 37°C

Sequence | binding to HLA-A*02:01 (thermal stability of the peptide-MHC-I complex, DSF) (HLA-A*02:01) | binding to recombinant HLA-B*40:01 (DSF) (HLA-B*40:01) | killing of EBV+ B cells pulsed with the peptide by wild type YLQ expanded PBMCs [1] | killing of peptide-pulsed EBV+ B cells by PBMCs expanded with the peptide [1]
LALLLLDRL | did neither observe binding | – | – | –
LFFNKVTLA | non-binder | – | – | –
LQLPQGTTL | did neither observe binding | – | – | –
MEVTPSGTWL | not to HLA-A*02:01 | specific binding | – | –
YFQPRTFLL [YLQ mutant] | weak binder | – | failed to kill | failed to kill both wild type and mutant peptide pulsed EBV^+ B cells
YLQPRTFLL [YLQ wildtype] | – | – | specific killing | –
